# Data reported in ChEMBL document CHEMBL2424545, “Structure-efficiency relationship of [1,2,4]triazol-3-ylamines as novel nicotinamide isosteres that inhibit tankyrases” (J Med Chem, 2013).
# Experiments:
# [1] = Inhibition of Wnt signaling in human HEK293 cells by STF luciferase reporter gene assay
# [2] = molecular target: T1, Poly [ADP-ribose] polymerase tankyrase-2 (Homo sapiens, UniProt Q9H2K2); assay: Inhibition of N-terminal GST-tagged TNKS2 (unknown origin) expressed in baculovirus infected sf21 cells after 60 mins by LC-MS analysis
# T1 sequence (Q9H2K2 whole entry): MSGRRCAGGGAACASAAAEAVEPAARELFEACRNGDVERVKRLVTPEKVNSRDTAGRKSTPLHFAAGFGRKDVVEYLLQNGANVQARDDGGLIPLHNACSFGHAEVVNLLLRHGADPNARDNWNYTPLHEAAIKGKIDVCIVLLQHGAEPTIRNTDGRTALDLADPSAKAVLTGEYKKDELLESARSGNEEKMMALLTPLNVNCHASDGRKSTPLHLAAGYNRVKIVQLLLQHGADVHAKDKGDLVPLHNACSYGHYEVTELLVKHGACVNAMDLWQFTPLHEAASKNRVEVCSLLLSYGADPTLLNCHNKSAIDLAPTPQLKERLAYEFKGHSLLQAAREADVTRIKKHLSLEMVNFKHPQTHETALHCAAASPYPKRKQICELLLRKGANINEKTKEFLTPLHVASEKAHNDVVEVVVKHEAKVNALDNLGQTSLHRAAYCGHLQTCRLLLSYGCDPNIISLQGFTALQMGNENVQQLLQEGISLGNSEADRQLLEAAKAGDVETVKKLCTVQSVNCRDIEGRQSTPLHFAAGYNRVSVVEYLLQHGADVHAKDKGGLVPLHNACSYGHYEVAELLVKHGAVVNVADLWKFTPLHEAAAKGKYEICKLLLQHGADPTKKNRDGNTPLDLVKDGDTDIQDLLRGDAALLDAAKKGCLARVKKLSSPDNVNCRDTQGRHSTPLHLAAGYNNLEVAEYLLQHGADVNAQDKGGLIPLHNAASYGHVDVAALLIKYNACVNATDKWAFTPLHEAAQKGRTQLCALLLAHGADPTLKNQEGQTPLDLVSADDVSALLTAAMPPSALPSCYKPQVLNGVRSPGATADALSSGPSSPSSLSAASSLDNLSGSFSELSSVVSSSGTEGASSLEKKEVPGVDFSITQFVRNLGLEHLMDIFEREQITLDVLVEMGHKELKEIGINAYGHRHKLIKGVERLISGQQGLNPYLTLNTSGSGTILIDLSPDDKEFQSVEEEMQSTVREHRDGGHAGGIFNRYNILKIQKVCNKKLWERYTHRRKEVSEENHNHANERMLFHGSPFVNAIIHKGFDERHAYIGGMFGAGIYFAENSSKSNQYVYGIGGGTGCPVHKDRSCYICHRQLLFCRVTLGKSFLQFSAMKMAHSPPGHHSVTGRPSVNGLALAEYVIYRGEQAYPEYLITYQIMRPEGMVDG
# [3] = Hepatic extraction ratio in mouse liver microsomes; format: ADME, Microsome; details: read-out: ERH
# [4] = Hepatic extraction ratio in human liver microsomes; format: ADME, Microsome; details: read-out: ERH
# [5] = molecular target: Poly [ADP-ribose] polymerase 1 (Homo sapiens, UniProt P09874)
# Description: Inhibition of human PARP1 after 60 mins by LC-MS analysis
# [6] = Plasma clearance in iv dosed Sprague-Dawley rat; format: ADME, organism-based
# [7] = Volume of distribution in iv dosed Sprague-Dawley rat; format: ADME, organism-based; details: in vivo
# [8] = molecular target: Poly [ADP-ribose] polymerase 2 (Homo sapiens, UniProt Q9UGN5); assay: Inhibition of PARP2 (unknown origin) after 60 mins by LC-MS analysis
# [9] = Inhibition of TNKS in human SW480 cells assessed as stabilization of axin2 after 24 hrs by ELISA; format: cell-based
# [10] = molecular target: T2, Poly [ADP-ribose] polymerase tankyrase-1 (Homo sapiens, UniProt O95271); assay: Inhibition of N-terminal GST-tagged human TNKS1 expressed in baculovirus infected sf21 cells after 60 mins by LC-MS analysis
# T2 sequence (O95271 whole entry): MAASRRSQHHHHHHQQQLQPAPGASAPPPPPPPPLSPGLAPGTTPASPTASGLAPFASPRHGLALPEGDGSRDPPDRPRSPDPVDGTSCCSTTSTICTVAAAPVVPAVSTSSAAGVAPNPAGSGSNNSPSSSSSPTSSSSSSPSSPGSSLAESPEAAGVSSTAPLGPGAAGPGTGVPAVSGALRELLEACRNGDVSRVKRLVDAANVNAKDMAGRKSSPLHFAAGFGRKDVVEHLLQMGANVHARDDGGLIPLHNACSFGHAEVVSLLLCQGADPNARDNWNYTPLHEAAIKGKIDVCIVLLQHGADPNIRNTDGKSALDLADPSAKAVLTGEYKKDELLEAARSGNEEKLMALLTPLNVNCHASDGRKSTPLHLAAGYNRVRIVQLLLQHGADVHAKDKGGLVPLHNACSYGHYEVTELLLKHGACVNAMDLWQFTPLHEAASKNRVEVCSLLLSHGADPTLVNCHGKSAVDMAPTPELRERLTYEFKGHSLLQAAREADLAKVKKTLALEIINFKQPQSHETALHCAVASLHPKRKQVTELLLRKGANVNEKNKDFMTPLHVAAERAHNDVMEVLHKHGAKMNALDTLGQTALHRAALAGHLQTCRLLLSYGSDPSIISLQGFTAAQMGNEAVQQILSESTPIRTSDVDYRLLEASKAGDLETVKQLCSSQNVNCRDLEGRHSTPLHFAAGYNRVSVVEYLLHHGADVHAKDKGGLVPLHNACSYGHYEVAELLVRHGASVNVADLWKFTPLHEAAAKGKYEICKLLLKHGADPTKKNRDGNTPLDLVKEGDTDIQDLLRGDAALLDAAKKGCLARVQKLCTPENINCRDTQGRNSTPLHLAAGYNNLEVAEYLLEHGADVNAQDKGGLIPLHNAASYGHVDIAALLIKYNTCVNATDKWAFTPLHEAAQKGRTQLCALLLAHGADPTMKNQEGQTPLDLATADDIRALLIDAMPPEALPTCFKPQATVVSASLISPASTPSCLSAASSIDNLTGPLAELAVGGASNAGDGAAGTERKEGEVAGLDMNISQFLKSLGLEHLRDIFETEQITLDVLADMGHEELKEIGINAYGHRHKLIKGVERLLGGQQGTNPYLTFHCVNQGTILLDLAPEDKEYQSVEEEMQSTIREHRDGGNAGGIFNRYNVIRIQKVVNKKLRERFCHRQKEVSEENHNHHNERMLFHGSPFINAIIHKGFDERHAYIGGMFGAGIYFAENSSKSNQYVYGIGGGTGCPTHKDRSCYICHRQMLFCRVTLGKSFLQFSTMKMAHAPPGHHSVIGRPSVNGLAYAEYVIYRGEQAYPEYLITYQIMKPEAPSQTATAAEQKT
# [11] = Solubility of the compound at pH 6.8; format: physicochemical; details: buffer
# Mus musculus = assay: T(last) in C57BL/6 mouse at 1 mg/kg, iv; format: ADME, organism-based; parameters: dose 1 mg/kg, route intravenous; details: in vivo
# [12] = AUC (last) in C57BL/6 mouse at 1 mg/kg, iv; format: ADME, organism-based; parameters: time 0 - last, dose 1 mg/kg, route intravenous; details: plasma
# [13] = Oral bioavailability in C57BL/6 mouse at 5 mg/kg; format: ADME, organism-based; details: in vivo
# [14] = Mean residence time (0 to t) in C57BL/6 mouse at 1 mg/kg, iv; format: ADME, organism-based; parameters: dose 1 mg/kg, route intravenous; details: in vivo
# [15] = Tmax in C57BL/6 mouse at 5 mg/kg, po; format: ADME, organism-based; parameters: dose 5 mg/kg, route oral; details: in vivo
# [16] = AUC (last) in C57BL/6 mouse at 5 mg/kg, po; format: ADME, organism-based; parameters: time 0 - last, dose 5 mg/kg, route oral; details: plasma
# [17] = Tmax in C57BL/6 mouse at 1 mg/kg, iv; format: ADME, organism-based; parameters: dose 1 mg/kg, route intravenous; details: in vivo
# [18] = Half life in C57BL/6 mouse at 1 mg/kg, iv; format: ADME, organism-based; parameters: dose 1 mg/kg, route intravenous; details: in vivo
# [19] = Cmax in C57BL/6 mouse at 1 mg/kg, iv; format: ADME, organism-based; parameters: dose 1 mg/kg, route intravenous; details: in vivo
# [20] = Volume of distribution at steady state in C57BL/6 mouse at 1 mg/kg, iv; format: ADME, organism-based; parameters: dose 1 mg/kg, route intravenous; details: in vivo, read-out: Vdss(app)
# [21] = Plasma clearance in C57BL/6 mouse at 1 mg/kg, iv; format: ADME, organism-based; parameters: dose 1 mg/kg, route intravenous
# [22] = Cmax in C57BL/6 mouse at 5 mg/kg, po; format: ADME, organism-based; parameters: dose 5 mg/kg, route oral; details: in vivo
# Poly [ADP-ribose] polymerase 1, sequence (P09874 whole entry): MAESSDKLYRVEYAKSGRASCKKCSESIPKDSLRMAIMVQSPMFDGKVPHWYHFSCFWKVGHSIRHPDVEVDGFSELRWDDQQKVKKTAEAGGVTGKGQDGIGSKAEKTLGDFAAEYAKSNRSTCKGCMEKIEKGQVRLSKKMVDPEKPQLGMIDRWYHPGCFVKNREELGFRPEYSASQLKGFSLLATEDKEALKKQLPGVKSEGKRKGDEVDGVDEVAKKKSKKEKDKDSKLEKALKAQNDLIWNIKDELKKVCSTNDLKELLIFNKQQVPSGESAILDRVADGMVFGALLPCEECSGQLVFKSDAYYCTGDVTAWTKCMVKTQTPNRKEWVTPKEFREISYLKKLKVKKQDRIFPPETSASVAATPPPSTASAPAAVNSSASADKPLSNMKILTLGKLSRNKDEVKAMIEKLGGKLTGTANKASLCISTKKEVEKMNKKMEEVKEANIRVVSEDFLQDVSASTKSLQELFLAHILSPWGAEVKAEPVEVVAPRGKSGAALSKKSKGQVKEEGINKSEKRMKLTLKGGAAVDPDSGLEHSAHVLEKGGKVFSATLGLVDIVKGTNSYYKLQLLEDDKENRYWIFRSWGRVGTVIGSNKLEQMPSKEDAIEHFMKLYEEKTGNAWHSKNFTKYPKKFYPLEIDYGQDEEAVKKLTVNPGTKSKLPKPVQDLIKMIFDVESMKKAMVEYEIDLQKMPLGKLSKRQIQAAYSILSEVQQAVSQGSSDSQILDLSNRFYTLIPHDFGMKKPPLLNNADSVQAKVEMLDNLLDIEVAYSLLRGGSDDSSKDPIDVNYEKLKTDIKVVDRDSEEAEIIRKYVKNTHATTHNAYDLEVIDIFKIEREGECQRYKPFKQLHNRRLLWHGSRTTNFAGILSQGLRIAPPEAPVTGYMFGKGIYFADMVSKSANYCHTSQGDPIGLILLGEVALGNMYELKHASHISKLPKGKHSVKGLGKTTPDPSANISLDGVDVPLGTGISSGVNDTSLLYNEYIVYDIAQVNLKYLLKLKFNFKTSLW
# Poly [ADP-ribose] polymerase 2, sequence (Q9UGN5 whole entry): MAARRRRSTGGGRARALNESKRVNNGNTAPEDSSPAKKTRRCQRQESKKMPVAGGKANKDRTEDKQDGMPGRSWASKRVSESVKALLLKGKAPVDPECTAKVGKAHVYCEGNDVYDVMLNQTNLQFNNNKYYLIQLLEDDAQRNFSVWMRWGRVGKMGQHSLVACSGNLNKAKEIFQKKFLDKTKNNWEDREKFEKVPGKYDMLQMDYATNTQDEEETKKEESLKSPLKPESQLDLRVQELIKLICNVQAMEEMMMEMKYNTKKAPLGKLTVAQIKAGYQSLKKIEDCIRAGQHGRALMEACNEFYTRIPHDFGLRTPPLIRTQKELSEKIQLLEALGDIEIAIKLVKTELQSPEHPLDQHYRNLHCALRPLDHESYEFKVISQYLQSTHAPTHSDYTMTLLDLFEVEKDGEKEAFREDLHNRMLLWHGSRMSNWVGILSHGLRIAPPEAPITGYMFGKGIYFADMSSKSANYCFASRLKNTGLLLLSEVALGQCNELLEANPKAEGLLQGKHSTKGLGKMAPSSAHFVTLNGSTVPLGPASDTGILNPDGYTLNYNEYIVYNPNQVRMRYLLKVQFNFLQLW
Structure (SMILES),IC50 [1],IC50 [2],further results
Cc1cccc(C)c1CCC(=O)Nc1nnc2n1CCS2,1210 nM,33 nM,
O=C(NCc1ccccc1)Nc1nnc2n1CCS2,17600 nM,444 nM,
CC(C)CC(=O)Nc1nnc2n1CCCS2,,980 nM,
O=C(CCc1c(Cl)cccc1Cl)Nc1nnc2n1CCS2,29 nM,3 nM,hepatic extraction ratio [3]: 0.91; hepatic extraction ratio [4]: 0.61; IC50 [5]: > 19000 nM; clearance [6]: 45.6 mL/min/kg; Vd [7]: 1.1 L/kg; IC50 [8]: > 19000 nM; IC50 [9]: 377 nM; IC50 [10]: 12 nM; solubility [11]: 16 µM
O=C(CCc1ccccc1)Nc1nnc2n1CCS2,1670 nM,39 nM,
Cc1n[nH]c(C)c1CCC(=O)Nc1nnc2n1CCS2,> 10000 nM,195 nM,
O=C(CCCC1CCCCC1)Nc1nnc2n1CCS2,4520 nM,89 nM,
O=C(CCc1ccccc1Cl)Nc1nnc2n1CCS2,50 nM,5 nM,hepatic extraction ratio [3]: 0.9; hepatic extraction ratio [4]: 0.66; IC50 [9]: 1400 nM; IC50 [10]: 14 nM; solubility [11]: 32 µM
CC(=O)Nc1nnc2n1CCCS2,,> 19000 nM,
O=C(Nc1nnc2n1CCS2)C1CC1,> 50000 nM,2010 nM,
O=C(Nc1nnc2n1CCS2)C1CCC1,13800 nM,264 nM,
O=C(CC1CCCCC1)Nc1nnc2n1CCS2,429 nM,20 nM,
O=C(CCC1CCNCC1)Nc1nnc2n1CCS2,> 50000 nM,2320 nM,
O=C(CCc1ccccc1F)Nc1nnc2n1CCS2,345 nM,12 nM,
O=C(CC1CCOCC1)Nc1nnc2n1CCS2,10300 nM,202 nM,
O=C(Nc1nnc2n1CCS2)c1ccccc1,,250 nM,
CC(=O)Nc1nnc2n1CCS2,,> 19000 nM,
O=C(CCc1ccco1)Nc1nnc2n1CCS2,5350 nM,88 nM,

Structure (SMILES),IC50 [1],IC50 [2],further results
O=C(Nc1nnc2n1CCCS2)c1ccccc1,,2760 nM,
O=C(CCC1CCCC1)Nc1nnc2n1CCS2,194 nM,9 nM,hepatic extraction ratio [3]: 0.91; hepatic extraction ratio [4]: 0.68; IC50 [9]: 3080 nM; IC50 [10]: 28 nM; solubility [11]: 630 µM
O=C(CCc1cccc(Cl)c1Cl)Nc1nnc2n1CCS2,20 nM,1 nM,hepatic extraction ratio [3]: 0.92; IC50 [5]: > 19000 nM; IC50 [8]: 3800 nM; IC50 [9]: > 10000 nM; IC50 [10]: 7 nM
O=C(Cc1ccccc1)Nc1nnc2n1CCS2,7270 nM,239 nM,
O=C(CCc1ccc(Cl)cc1Cl)Nc1nnc2n1CCS2,116 nM,5 nM,hepatic extraction ratio [3]: 0.91; IC50 [5]: > 19000 nM; IC50 [8]: 4700 nM; IC50 [9]: > 10000 nM; IC50 [10]: 24 nM
O=C(Nc1nnc2n1CCS2)C1CCCC1,12800 nM,220 nM,
O=C(CCn1cncn1)Nc1nnc2n1CCS2,> 10000 nM,1790 nM,
O=C(CCC1CCCCCC1)Nc1nnc2n1CCS2,2180 nM,26 nM,
O=C(CCc1ccncc1)Nc1nnc2n1CCS2,12700 nM,134 nM,
CC(C)(C)c1ccc(C(=O)Nc2nnc3n2CCS3)cc1,2390 nM,31 nM,hepatic extraction ratio [3]: 0.84; hepatic extraction ratio [4]: 0.36; IC50 [8]: > 19000 nM; IC50 [9]: > 10000 nM; IC50 [10]: 299 nM; solubility [11]: > 100 µM
O=C(CCC1CCCCC1)Nc1nnc2n1CCS2,169 nM,8 nM,hepatic extraction ratio [3]: 0.95; hepatic extraction ratio [4]: 0.2; IC50 [9]: > 10000 nM; IC50 [10]: 32 nM; solubility [11]: 520 µM
CC(C)CC(=O)Nc1nnc2n1CCS2,6450 nM,103 nM,hepatic extraction ratio [3]: 0.29; hepatic extraction ratio [4]: 0.17; Tlast (Mus musculus): 1 h; IC50 [5]: 55300 nM; AUC(0-t) [12]: 4.73 µM·h; bioavailability [13]: 36%; MRT last [14]: 6 min; Tmax [15]: 18 min; AUC(0-t) [16]: 8.6 µM·h; Tmax [17]: 18 min; half-life [18]: 6 min; Cmax [19]: 19.1 µM; Vd [20]: 0.1 L/kg; IC50 [9]: 7670 nM; IC50 [10]: 395 nM; clearance [21]: 17 mL/min/kg; Cmax [22]: 13.7 µM; solubility [11]: > 1000 µM
CC(C)(C)c1ccc(C(=O)Nc2nnc3n2CCCS3)cc1,47800 nM,353 nM,IC50 [8]: > 19000 nM
O=C(CCCc1ccccc1)Nc1nnc2n1CCS2,6460 nM,303 nM,
Oc1nc(-c2ccc(C(F)(F)F)cc2)nc2c1CSCC2,78 nM,,
O=C(CCc1cccnc1)Nc1nnc2n1CCS2,6290 nM,138 nM,
O=C(Nc1nnc2n1CCS2)C1CCCCC1,1540 nM,70 nM,
